Assay results taken from patent publication US11919895B2, “GPR183 antagonists for the treatment of pain” (Saint Louis University, priority 2019, dated 2024).
“Also recorded” adds a separate entry of the source. Where two headings read alike, the source gives them in different places.

Columns and labels:
[1] = test system: CCI-induced neuropathic pain; experiment: Example 1: intrathecal injection in CCI-induced neuropathic pain; assay type: in vivo, rodents; conditions: for effect on behaviors on the contralateral side: intrathecal injection (5 μl), CCI; for reversal of CCI-induced neuropathic pain behaviors (allodynia) ipsilateral to injury: intrathecal injection at time of peak neuropathic pain (day 7)
[2] = test system: CCI-induced mechano-allodynia; experiment: Example 2: CCI-induced mechano-allodynia, intrathecal injection (von Frey); assay type: in vivo, mice
Experimental: (§1) α,25-dihydroxycholesterol (7α,25-OHC) was purchased from Avanti Polar Lipids (Alabaster, AL) and dissolved in DMSO as a 2 mM stock. For injections 7α,25-OHC was diluted in saline. […] For intrathecal injections, NIBR189 was diluted in saline. Fluoronated 7α,25-OHC analog (SLUPP-1492) was synthesized as described previously (Deng et al., 2016) (detailed methods below and continued in Supplemental methods) and prepared as a 10 mM stock in DMSO. For injections SLUPP-1492 was diluted in saline. SAE compounds were purchased from Enamine (Monmouth Jet., NJ), all compounds were purified via normal phase chromatography and had purities of ≥95%. 100 mM Stock solutions of the SAE compounds were prepared in DMSO. For intrathecal injections, SAE compounds were diluted in saline. Acute intrathecal (i.th.) injections of compounds were performed as described previously (Lu and Schmidtko, 2013), all compounds were administered intrathecally in a total volume of 5-10 μL.
CCI of the left sciatic nerve of mice and rats was performed under general anesthesia as previously described (Yosten et al., 2020). Briefly, animals were anesthetized with 2% isoflurane/O2, the left thigh was shaved and disinfected with Dermachlor solution. A small incision (1-1.5 cm) was made in the middle of the lateral aspect of the left thigh to expose the sciatic nerve. The nerve was loosely ligated around the diameter at 3 distinct sites (1 mm apart) using silk sutures (6.0, mice; 4.0, rats). The surgical site was closed with a skin clip and disinfected and treated with topical lidocaine (2%). Sham animals underwent the same procedure without nerve ligation. Peak allodynia developed by D7-D10 following CCI surgery.
(§2) Mechano-allodynia was measured as previously described (Yosten et al., 2020) using calibrated von Frey filaments (Stoelting; range in mice: 0.07-2.00 g; in rats: 2-26 g) using the Dixon up-and-down method (Dixon, 1991). Mechano-allodynia was defined as a significant (p<0.05) reduction in mechanical paw withdrawal threshold [PWT (g)] compared to baseline forces (before treatment).

[3] = target: T1, GPR183 (Homo sapiens, UniProt P32249); conditions: Benned-Jensen et al., 2013; read-out: IC50, GPR183 antagonist; cited from earlier work
Target sequence in this assay (P32249 whole entry, species assumed): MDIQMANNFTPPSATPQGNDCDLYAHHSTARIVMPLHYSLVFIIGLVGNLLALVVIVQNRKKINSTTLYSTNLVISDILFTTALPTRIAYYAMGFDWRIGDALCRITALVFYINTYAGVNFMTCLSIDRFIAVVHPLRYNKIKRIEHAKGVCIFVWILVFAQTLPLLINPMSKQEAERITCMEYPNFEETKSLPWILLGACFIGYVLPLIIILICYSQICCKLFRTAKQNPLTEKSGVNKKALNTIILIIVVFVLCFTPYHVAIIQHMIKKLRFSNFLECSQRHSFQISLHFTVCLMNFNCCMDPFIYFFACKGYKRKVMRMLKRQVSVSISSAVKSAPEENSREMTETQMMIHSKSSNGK

[4] = Ardecky et al., 2010; cited from earlier work
[5] = Ardecky et al., 2010; cited from earlier work; remark: listed apart in the source
[6] = test system: GPR183 signaling in the spinal cord; experiment: Example 2: cold allodynia induced by intrathecal GPR183 agonist (acetone test); assay type: in vivo, mice
Experimental: as §1, with “Acute intrathecal (i.th.) injections of compounds were performed as described previously (Lu and Schmidtko, 2013), all compounds were administered intrathecally in a total volume of 5-10 μL.” left out
Cold allodynia was measured as previously described using the acetone test (Xing et al., 2007; Yosten et al., 2020). Briefly, a small drop of acetone was applied to the hind paw of the animal using a flattened polyethylene tube and a syringe and the response to the cold stimulus was scored (0, no response; 1, brisk withdrawal or flick of the paw; 2. repeated flicking of the paw; 3. repeated flicking and licking of the paw). […] When mechanical and cold allodynia were measured on the same animal, mechano-allodynia was measured first with at least 15 minutes before testing cold allodynia.

[7] = target: T1, GPR183; experiment: Calcium mobilization antagonism assay (7α,25-OHC-induced) in HL-60 cells; assay type: cell-based; set-up: host or cells: HL-60 (human leukemia) cells; conditions: 7α,25-OHC at EC80
Target sequence in this assay (P32249 whole entry): as the sequence (P32249 whole entry, species assumed) above
Experimental: Serial dilutions (5×) of compounds were prepared in 50:1 HBSS/HEPES.HL-60 cells (1×10^7) were incubated in 50:1 HBSS/HEPES containing 5 μM indo-1-AM (Thermo Fischer Scientific; Waltham. MA) and 0.05% pluronic acid for 0.5 hours at room temperature. Cells were centrifuged and washed with 50:1 HBSS/HEPES and resuspended in buffer. Cells were loaded onto a black 96-well Greiner Bio-One (Thermo Fischer Scientific; Waltham, MA) clear-bottom plate at 100,000 cells/well for a 5× dilution. […] For antagonism assays, before the addition of agonist, 5× of the antagonist was added and incubated for 15 minutes at 37° C. inside a FlexStation3. After allowing 15 minutes of equilibration, the determined EC80 of 7α,25-OHC (200 nM) was added, and fluorescence was read for 150 secs at 37° C. Calcium mobilization was determined ratiometrically using λex 350 nm and λem 405/490 nm. Dose-response data were normalized to a 0.5% DMSO vehicle control and the maximum response. […]

[8] = test system: GPR183; experiment: Example 1: mechano-allodynia induced by i.th. GPR183 agonist; assay type: in vivo, rodents
[9] = test system: GPR183 signaling in the spinal cord; experiment: Example 2: mechano-allodynia induced by intrathecal GPR183 agonist; assay type: in vivo, mice
Experimental: as §1, §2

[10] = target: T1, GPR183; experiment: Calcium mobilization agonism assay in HL-60 cells; assay type: cell-based; set-up: host or cells: HL-60 (human leukemia) cells; conditions: for EC80: calcium mobilization
Experimental: The Human leukemia (HL)-60 cells (American Type Culture Collection; Manassas, VA) were cultivated in RPMI 1640 media containing 10% heat-inactivated fetal bovine serum (FBS), 1% penicillin, and 1% GlutaMax. Cells were passaged every 3 days and maintained at a cell concentration below 1×10^6 to prevent differentiation.
(§3) Serial dilutions (5×) of compounds were prepared in 50:1 HBSS/HEPES.HL-60 cells (1×10^7) were incubated in 50:1 HBSS/HEPES containing 5 μM indo-1-AM (Thermo Fischer Scientific; Waltham. MA) and 0.05% pluronic acid for 0.5 hours at room temperature. Cells were centrifuged and washed with 50:1 HBSS/HEPES and resuspended in buffer. Cells were loaded onto a black 96-well Greiner Bio-One (Thermo Fischer Scientific; Waltham, MA) clear-bottom plate at 100,000 cells/well for a 5× dilution. For agonism assays, cells were immediately incubated for 15 minutes at 37° C. inside a FlexStation 3 Multimode Plate Reader (Molecular Devices; Sunnyvale, CA). Following the 15 minute incubation period, 5× of the compound was added and fluorescence was read for 150 seconds at 37° C. This method was utilized to determine the EC80 value of 7α,25·OHC (EC80=200 nM). For antagonism assays, before the addition of agonist, 5× of the antagonist was added and incubated for 15 minutes at 37° C. inside a FlexStation3. After allowing 15 minutes of equilibration, the determined EC80 of 7α,25-OHC (200 nM) was added, and fluorescence was read for 150 secs at 37° C. Calcium mobilization was determined ratiometrically using λex 350 nm and λem 405/490 nm. Dose-response data were normalized to a 0.5% DMSO vehicle control and the maximum response. From the normalized data, non-linear regression curves were then generated to calculate the appropriate EC50 and IC50 values. Each compound was run in triplicate (n=3).
Target sequence in this assay (P32249 whole entry): as the sequence (P32249 whole entry, species assumed) above

[11] = target: T1, GPR183; experiment: Calcium mobilization in HL-60 cells after siRNA knock-down of GPR183; assay type: cell-based; set-up: host or cells: HL-60 (human leukemia) cells; conditions: HL-60 cells treated with siRNA, FIG. 12E
Experimental: as §3, with “Dose-response data were normalized to a 0.5% DMSO vehicle control and the maximum response. From the normalized data, non-linear regression curves were then generated to calculate the appropriate EC50 and IC50 values. Each compound was run in triplicate (n=3).” left out
Target sequence in this assay (P32249 whole entry): as the sequence (P32249 whole entry, species assumed) above
siRNA was purchased from Santa Cruz Biotechnology (Dallas, TX). HL-60 cells were centrifuged and counted with a hemocytometer to obtain 2.5×10^6 cells. […]

[12] = acute i.th. on D7 post-surgery, male and female mice, SAE-1 800 nM, SAE-10 1.4 μM, SAE-14 2.9 μM

## COc1cc(C(C)NC(=O)Cc2c(C)nc(C)[nH]c2=O)cc(OC)c1OC (stereo not drawn) [SAE-1]
[1]
  effect on behaviors on the contralateral side: No effects on behaviors on the contralateral side
  reversal of CCI-induced neuropathic pain behaviors (allodynia) ipsilateral to injury: reversal of CCI-induced neuropathic pain behaviors ipsilateral to injury in a time- and dose-dependent manner
[2]; [12]
  reversal of CCI-induced mechano-allodynia: reversed CCI-induced mechanical allodynia in a time-dependent manner

## O=C(/C=C/c1ccc(Cl)cc1)N1CCC2(CC1)CN(Cc1ccc(Cl)c(Cl)c1)C(=O)O2 [GSK682753A]
[3]
  IC50: 200 nM
[4]
  microsomal stability: poor
[5]
  plasma stability: poor

## O=C(CCc1ccc(F)c(F)c1)Nc1cc(F)cc(N2CCOCC2)c1 [SAE-14]
[1]
  reversal of CCI-induced neuropathic pain behaviors (allodynia) ipsilateral to injury: reversed allodynia in a time-dependent manner
[1]; intrathecal injection, rodents
  observable adverse side effects: no observable adverse side effects
[6]; i.th. pre-treatment 3 μM, 7α,25-OHC 480 nM, male and female mice
  prevention of cold-allodynia induced by 7α,25-OHC: blocked these effects of 7α,25-OHC in a dose-dependent manner; also recorded: dose-dependently prevented
[7]
  IC50: 28.5 nM
[8]; i.th. delivery, rodents
  blockade of agonist-induced allodynia: blocked
[9]; i.th. pre-treatment 0.3, 1, 3 μM, 7α,25-OHC 480 nM, male and female mice
  prevention of mechano-allodynia induced by 7α,25-OHC: blocked these effects of 7α,25-OHC in a dose-dependent manner; also recorded: dose-dependently prevented
[2]; [12]
  reversal of CCI-induced mechano-allodynia: reversed CCI-induced mechanical allodynia in a time-dependent manner

## C[C@H](CCCC(C)(C)O)[C@H]1CC[C@H]2[C@@H]3[C@H](O)C=C4C[C@@H](O)CC[C@]4(C)[C@H]3CC[C@]12C [7α,25-OHC, 7α,25-dihydroxycholesterol]
[6]; i.th., 7α,25-OHC 240 nM, SLUPP-1492 615 nM, mice
  induction of cold-allodynia: induced time-dependent development of cold-allodynia
[8]; i.th. injection, n=6/dose, 3 doses
  ED50, induction of mechano-allodynia: 0.031 ng
[9]; acute i.th., 7α,25-OHC 24, 72, 240 nM, SLUPP-1492 615 nM, male and female mice
  induction of mechano-allodynia: induced a dose and time-dependent mechano-allodynia
[9]; i.th. injection, mice, FIG. 14A
  ED50, induction of mechano-allodynia: 74 nM
[10]
  EC50: 42.4 nM
[10]; FIG. 1
  calcium response in HL-60 cells that express GPR183: very prominent calcium response
[10]; HL-60 cells
  EC80: 209 nM
[10]; HL-60 cells, listed as 7α,25·OHC
  EC80: 200 nM
[10]; log(agonist) vs. normalized response, variable slope, HL-60 cells
  HillSlope (best-fit value): 0.8624
[11]
  7α,25-OHC-induced calcium mobilization with GPR183-specific siRNA: abolished

## COc1cc2c(cc1OC)CN(C(=O)NOCc1ccccc1)CC2 [SAE-10]
[2]; [12]
  reversal of CCI-induced mechano-allodynia: reversed CCI-induced mechanical allodynia in a time-dependent manner

## COc1ccc(C(=O)N2CCN(C(=O)/C=C/c3ccc(Br)cc3)CC2)cc1 [NIBR189]
[1]
  effect on behaviors on the contralateral side: No effects on behaviors on the contralateral side
  reversal of CCI-induced neuropathic pain behaviors (allodynia) ipsilateral to injury: reversal of CCI-induced neuropathic pain behaviors ipsilateral to injury in a time- and dose-dependent manner
[2]; acute i.th. 0.7, 2.3, 23 μM on D7 post CCI, male mice
  reversal of CCI-induced mechano-allodynia: failed to reverse mechano-allodynia; also recorded: did not reverse
